Tested on: HT-29 enterocytes
Test: Fluoresterol absorption by HT-29 enterocytes (flow cytometry)
Assay type: cell-based
Conditions: Homo sapiens, Ezetimibe at maximum effective concentration 300 μM
Description: HT-29 enterocytes were obtained from the CIC of the University of Granada (Spain) and cultured in DMEM medium supplemented with a 10% (v/v) of FBS, non-essential amino acids and 2 mM L-glutamine; at 37° C. and 5% (v/v) CO2. Cultures for fluoresterol absorption were grown for 14 days using 96-well plates, incubated for 3-4 h with micelles of fluoresterol and bacterial suspensions at 5·10^8 bacteria/mL, or […] Ezetimibe (MSD-SP Ltd) as positive control. Before fluorocytometric assays, HT-29 cultures were disagreggated by trypsin treatment, the medium and free micelles of fluoresterol removed by centrifugation and enterocytes suspended in PBS buffer.
Micelles of fluoresterol, containing 10 mM sodium taurocholate, 6 mM phosphatidylcholine and 0.2 mM fluoresterol were prepared as described by Sparrow et al. (Sparrow et al., 1999, J Lipid Res 40:1747-57). Fluoresterol absorption by bacteria was analyzed incubating bacterial suspensions (5·10^8 bacteria/mL) with micelles (0.1 mg/mL fluoresterol) in PBS buffer at 37° C. […] Finally, bacteria associated fluorescence was determined in a Tecan Genius microplate reader (485 nm excitation, 535 nm emission filters) or in a Beckton Dickinson FACScalibur flow cytometer. […] Absorbed fluoresterol was quantified based on the data of fluorescence (λex: 488 nm; λem: 530 nm) per cell obtained from 2,000 events in each sample. […]

In the case of `O=C1[C@H](CC[C@H](O)c2ccc(F)cc2)[C@@H](c2ccc(O)cc2)N1c1ccc(F)cc1` [Ezetimibe], the inhibition at 300 µM is reported as 40%.

Source: patent US11058734B2, “Probiotic strains having cholesterol absorbing capacity, methods and uses thereof” (BIOSEARCH, S.A., priority 2014, dated 2021)
